Assay results as given in patent US20260308116A1, “TERTIARY AMINE COMPOUNDS CONTAINING AN ALKYNE OR AN AZIDE MOIETY AND THEIR USE” (INSTITUT NATIONAL DE LA SANTÉ ET DE LA RECHERCHE MÉDICALE, priority 2023, published 2026).

Tests used:
HeLa cells [1] = test: Clonogenic survival assay; conditions: for number of colonies formed (clonogenic survival): 1 h treatment, colonies after 15 days, parent vs click compound, FIG. 1A, 1B
HeLa cells [2] = test: Antiproliferative assay (CellTiter-Glo), IC50; type: cell-based; conditions: 72 h, 0.032-50 μM, FIG. 2B
Protocol: (§1) Data are shown as mean±s.e.m. of 3 independent experiments, ns (not significant), *p<0.05, **p<0.01 and ***p<0.001 according to two-way ANOVA followed by Šidák multiple range test (A) or by Tukey multiple range test (F) or to one-way ANOVA followed by Tukey's multiple comparison test (B, E, G) and Mann-Whitney test (C).
In antiproliferative assays, compounds were assayed for their growth inhibiting activity towards the described cancer cell lines using the CellTiter-Glo Luminesent Cell Viability Assay as described by the manufacturer (Promega Corporation). Briefly, 5.10^3 cells were plated onto 96 well-plates (white with clear bottom (3610, Corning Costar) with 90 μL media per well, and incubated overnight. Compounds were added at different concentrations (varying from 50 to 0.032 μM) to each well and cell cultures were incubated at 37° C. during 72 h. Vehicle (DMSO) was used as control and all compounds were tested in constant percentage of DMSO (0.5%). After addition of 50 μL CellTiter GLO, luminescence was measured using a Centro luminometer LB960 (Berthold). Dose-response curves were generated and effective dose 50 values (EC50) were calculated using nonlinear regression analysis (Graph Pad Prism).

FANCD2 = test: Detection of FANCD2 ubiquitination; conditions: FANCD2 mono ubiquitination by western blot, HeLa; FIG. 3B
HeLa FANCD2 KO cells [3] = test: Lesion repair in cells synchronized at G1/S boundary (double thymidine block); type: cell-based; conditions: FIG. 7C, 8B
Protocol: (§2) FIG. 7: Analysis of the FA-dependent melphalan-ICL repair during the cell cycle. (A) Dual parameter plot of the click-mono-melphalan or melphalan subjected to the Alexa 647-click reaction with propidium iodide co-staining. Lesions repair is evaluated in HeLa and HeLa FANCD2 KO cells by flow cytometry at different time post treatment. The percentage of G1 phase cells is indicated in the left corner (black), S phase cells in the center (yellow) and G2 phase in the right corner (red); (B) HeLa cells were arrested in G1 phase using a double thymidine block. Cultures harvested at various time points after release were stained with propidium iodide and analyzed using flow cytometry; (C) Quantification of fluorescence intensity in HeLa WT or HeLa FANCD2 KO treated with click-melphalan clicked with Alexa Fluor 647 azide at the indicated time post treatment. Data are shown as mean±s.e.m. of 3 independent experiments. *p<0.05 according to two-way ANOVA followed by Šidák multiple range test.
(§3) FIG. 8: (A) HeLa WT and FANCD2 KO cells were synchronized at the G1/S boundary, treated or not with click-melphalan before release into drug free medium. Cell cycle profile was monitored by propidium iodide staining; (B) Quantification of fluorescence intensity in HeLa WT and FANCD2 KO cell lines treated with click-melphalan at indicated times post treatment. […]

HeLa cells [4] = test: as above; type: cell-based; conditions: FIG. 7C, 8B
Protocol: as §2, §3

HeLa cells [5] = test: Detection of G2 arrest by flow cytometry; conditions: FANCD2, γH2AX, G2 arrest, p53 and caspase taken together
DNA = test: Detection of click agents in cells by microscopy (Alexa Fluor 647 azide); conditions: HeLa, 0.5 μM; FIG. 3C
HeLa cells [6] = test: Detection of click agents in cells by flow cytometry; type: cell-based; conditions: FIG. 3D
Protocol: HeLa, Jurkat and FA or XP primary cells (10^6 per dish) were seeded into 10 cm culture dishes and incubated overnight in culture medium. The following day, samples were treated with 0.5 μM click-Melphalan (Example 1), 0.5 μM click-MonoMelphalan (Example 2) or DMSO vehicle for 1 h. After treatment, cells were PBS-washed and released into medium. At designated time points, samples were harvested and fixed in EtOH 70%. Fixed cells where incubated in a click reaction buffer (50 μM Alexa fluor 647 azide, 1 mM copper (II) sulfate, 100 mM sodium ascorbate, 100 mM Tris-HCl pH 8.0) for 30 min at room temperature and then washed extensively using 3×5% FBS in PBS rinses to remove unbound reporter. Samples were stained with 5 μg/mL propidium iodide in 3% FBS in PBS and then analyzed using an LSR Fortessa flow cytometer (BD Biosciences, San Jose, CA). Ten thousand events were collected for each sample and gated using forward-versus side-scatter to eliminate cell debris and doublets. The data were analyzed using FlowJo software version 7.6.5 (Tree Star, San Carlos, CA).

HeLa cells [7] = test: Reverse alkaline comet assay (ICL formation); conditions: for visual comet score in the absence of IR: no IR, 2C
BRCA2 KO RPE1 cell line = test: Repair of lesions in BRCA2-deficient cells, click reaction and flow cytometry; type: cell-based; conditions: BRCA2-deficient cells; FIG. 6D, 6F
HeLa ERCC1 KO cells = test: Sensitivity of ERCC1-deficient cells (IC50 and clonogenic survival); type: cell-based; conditions: FIG. 2E, 2F
Protocol: as §1
(§4) 1000 Hela cells were seeded in triplicate in 10 cm dishes and allowed to attach for 4 hours before treatment for 1 hour with the indicated drugs. After 15 days, cells were washed, fixed and stained with crystal violet (Sigma). The number of colonies with >100 cells were counted. Results were normalized to plating efficiency. For each genotype, cell viability of untreated cells was defined as 100%. Data are represented as mean±SD from three independent experiments.
(§5) In antiproliferative assays, compounds were assayed for their growth inhibiting activity towards the described cancer cell lines using the CellTiter-Glo Luminesent Cell Viability Assay as described by the manufacturer (Promega Corporation). […]

HeLa FANCD2 KO cells [8] = test: Repair of lesions in HeLa FANCD2 KO cells, click reaction and flow cytometry; conditions: HeLa FANCD2 KO
HeLa cells [9] = test: Repair of lesions in HeLa cells, click reaction and flow cytometry; conditions: WT HeLa, 48 h
HeLa FANCD2 KO cells [10] = test: Sensitivity of FANCD2-deficient cells (IC50 and clonogenic survival); type: cell-based; conditions: FIG. 2E, 2F
Protocol: as §1, §4, §5

[11] = test system: cells from subject C3 (non-XP); test: Repair of lesions in control (non-XP) fibroblasts; conditions: subject C3, 48 h; FIG. 11B
[12] = test system: primary fibroblast cells from FA patients (FA1, FA2); test: Repair of lesions in FA patient primary fibroblasts; conditions: FA1, FA2 vs C3, C4 fibroblasts; FIG. 9B
[13] = test system: fibroblast cells from XP patients (XP1, XP2); test: Repair of lesions in XP patient fibroblasts
[14] = test system: PHA-stimulated lymphocytes from FA patients; test: Repair of lesions in FA patient lymphocytes; conditions: both FA patients, 48 h post treatment
HeLa FANCD2 KO cells [15] = test: Dual parameter plot assay (click / propidium iodide); conditions: FIG. 7A left panel

C#CCNC(=O)[C@@H](N)Cc1ccc(N(CCCl)CCCl)cc1 [click-melphalan, (S)-2-amino-3-(4-(bis(2-chloroethyl)amino)phenyl)-N-(prop-2-yn-1-yl)propanamide]
number of colonies formed (clonogenic survival) (HeLa cells [1]): similarly reduces the number of colonies formed with no significative differences
difference in toxicity between Melphalan and click-Melphalan (HeLa cells [1]; clonogenic assay): absence of differences in toxicity between Melphalan and click-Melphalan
IC50 (parent vs click compound) (HeLa cells [2]): further confirmed by the measurement of IC50 activity
minimum concentration required to detect a robust activation of the ICL repair pathway (FANCD2): 0.5 µM
repair of lesions 10 h after release in S phase (HeLa FANCD2 KO cells [3]): no significant repair
lesions repaired 10 h after release in S phase (HeLa cells [4]): around 50%
overall biological response, melphalan vs click-melphalan (HeLa cells [5]): equivalent biological response
fluorescence in cells after click reaction (DNA): fluorescence could be detected in cells
red fluorescent staining profile vs DNA content (DNA): essentially the same staining pattern as the DNA content
concentration from which a fluorescent signal was detectable (HeLa cells [6]): ≥ 0.5 µM
concentration up to which the fluorescent signal increases (HeLa cells [6]): up to 2 μM
effect of time of treatment on level of fluorescence (HeLa cells [6]): Extending the time of treatment increases the level of fluorescence
IR-induced tail moment after pre-treatment (HeLa cells [7]; 30 μM melphalan or click-melphalan, 60 min, then IR (10 Gy), FIG. 1C, 1D): large decrease in the IR-induced tail moment
reversal of tail moment, Melphalan vs click-Melphalan (HeLa cells [7]; 30 μM, 60 min, then IR (10 Gy)): no significant difference was observed between Melphalan or click-Melphalan
visual comet score in the absence of IR (HeLa cells [7]; FIG. 1C, 1D): neither Melphalan, click-Melphalan (Example 1), mono-melphalan (Comparative Example 1) nor click-mono-melphalan (Example 2) generated a visual comet score beyond the vehicle-treated control
repair of click-melphalan-induced lesions (BRCA2 KO RPE1 cell line): strong defect in the repair
sensitivity of ERCC1-deficient cells (HeLa ERCC1 KO cells): sensitive to click-melphalan
cells positive for melphalan (HeLa FANCD2 KO cells [8]; 48 h): all HeLa FANCD2 KO cells remained positive to melphalan
median fluorescence intensity (HeLa FANCD2 KO cells [8]; click-melphalan, FIG. 6B): no reduction of the median fluorescence intensity
repair of melphalan-induced lesions after 48 hours (HeLa cells [9]): most of WT HeLa cells have repaired melphalan-induced lesions after 48 hours
sensitivity of FANCD2-deficient cells (HeLa FANCD2 KO cells [10]): sensitive to click-melphalan

N[C@@H](Cc1ccc(N(CCO)CCCl)cc1)C(=O)O [mono-melphalan, (S)-2-Amino-3-(4-((2-chloroethyl) (2-hydroxyethyl)amino)phenyl)propanoic acid]
number of colonies formed (clonogenic survival) (HeLa cells [1]): similarly reduces the number of colonies formed with no significative differences
cells still positive for mono-melphalan [11]: ~0%
reduction of signal during repair of lesions, FA vs non-FA cells [12]: No significant differences in the reduction of signal
cells still positive for mono-melphalan ([13]; XP1 and XP2, 48 h, FIG. 11B): ~100%
persistence of mono-melphalan-induced lesions ([13]; XP compared to non-XP cells, up to 48 h, FIG. 11A, 11B): persisted in the XP patient cells up to 48 hours
repair of lesions in PHA-stimulated lymphocytes [14]: able to repair mono-melphalan
visual comet score in the absence of IR (HeLa cells [7]; FIG. 1C, 1D): neither Melphalan, click-Melphalan (Example 1), mono-melphalan (Comparative Example 1) nor click-mono-melphalan (Example 2) generated a visual comet score beyond the vehicle-treated control
dependence of the repair delay on DNA content (HeLa FANCD2 KO cells [15]): observed in all cells independently of their DNA content
repair of DNA lesions at 24 h (HeLa FANCD2 KO cells [15]; HeLa FANCD2 KO compared to HeLa, 24 h): slightly delayed in HeLa FANCD2 KO at 24 h compared to HeLa cells
